The text below walks through data of PMC11357446, “Searching for Novel HDAC6/Hsp90 Dual Inhibitors with Anti-Prostate Cancer Activity: In Silico Screening and In Vitro Evaluation” (Pharmaceuticals, 2024).

One may read the IC50 as the concentration that inhibits the measured activity by half. A word on the GI50: it is the concentration at which growth is held to half of that of the control.

The target in the first assay is HDAC6 (UniProt ID: Q9UBN7).
Test: not given
The conditions noted are these: ChEMBL record on recombinant protein; ref ChEMBL [62]; read-out: HDAC6 IC50 (Standard Value); cited from earlier work. Further details: method as in ChEMBL [62].
In the case of `O=C(/C=C/c1ccc2c(c1)C(=O)N(Cc1ccccc1)C2)NO` [CHEMBL247217], the IC50 is 230 nM.

For the compound `CC(C)(C)c1ccc(CN2Cc3ccc(/C=C/C(=O)NO)cc3C2=O)cc1` [CHEMBL247218], the IC50 is 990 nM.

Turning to `O=C(NO)c1ccc(CN2C(=O)CNC(=O)[C@H]2Cc2c[nH]c3ccccc23)cc1` [CHEMBL481719], the IC50 was 110 nM.

Turning to `O=C(Cc1ccc(-c2noc(C(F)(F)F)n2)cc1)N1CCOCC1` [CHEMBL3688148], the IC50 was 5500 nM.

For `O=C(NCc1ccc(CN2CCOCC2)cc1)c1ccc(-c2noc(C(F)(F)F)n2)cc1` [CHEMBL3692580], the IC50 was 5700 nM.

As for `O=C(Nc1ccncc1)c1ccc(-c2noc(C(F)(F)F)n2)cc1` [CHEMBL3692583], the half-inhibitory concentration (IC50) was 2100 nM.

For `O=C(Nc1cccnc1)c1ccc(-c2noc(C(F)(F)F)n2)cc1` [CHEMBL3692584], the IC50 was 4800 nM.

Take `O=C(NC1CCCCC1O)c1ccc(-c2noc(C(F)(F)F)n2)cc1` (stereo not shown) [CHEMBL3692597]: the IC50 is 7100 nM.

With `COc1cc(NC(=O)c2ccc(-c3noc(C(F)(F)F)n3)cc2)ccn1` [CHEMBL3692603], the IC50 was 8300 nM.

`Cc1cc(NC(=O)c2ccc(-c3noc(C(F)(F)F)n3)cc2)cc(C)n1` [CHEMBL3692604]: the IC50 was 5300 nM.

Take `N#Cc1cc(NC(=O)c2ccc(-c3noc(C(F)(F)F)n3)cc2)ccn1` [CHEMBL3692609]: the IC50 was 6100 nM.

On to `O=C(Nc1ccnc(C(F)(F)F)c1)c1ccc(-c2noc(C(F)(F)F)n2)cc1` [CHEMBL3692610], for which the IC50 was 8600 nM.

`Cc1cc(NC(=O)c2ccc(-c3noc(C(F)(F)F)n3)cc2F)cc(C)n1` [CHEMBL3692624]: the IC50 is 2500 nM.

Regarding `C[C@H](CN1CCCCC1)NC(=O)c1ccc(-c2noc(C(F)(F)F)n2)cc1F` [CHEMBL3692663], the IC50 is 3000 nM.

Turning to `C[C@H](CN1CCOCC1)NC(=O)c1ccc(-c2noc(C(F)(F)F)n2)cc1` [CHEMBL3692680], the IC50 is 6700 nM.

As to `C[C@H](CN1CCOCC1)NC(=O)c1ccc(-c2noc(C(F)(F)F)n2)cc1F` [CHEMBL3692681], the IC50 is 3200 nM.

For the compound `CC(C)c1nc2ccccc2n1Cc1ccc(C(=O)NO)cc1` [CHEMBL3926575], the IC50 was 47 nM.

Take `Cc1c(C)n(Cc2ccc(C(=O)NO)cc2)c2ccccc12` [CHEMBL3971436]: the concentration for half-maximal inhibition (IC50) was 4.08 nM.

As for `CC(C)CN1CC(=O)N2Cc3c(c4ccccc4n3Cc3ccc(C(=O)NO)cc3)CC2C1=O` (stereo not shown) [CHEMBL4284297], the IC50 is 3.78 nM.

`CN1CC(=O)N2Cc3c(c4ccccc4n3Cc3ccc(C(=O)NO)cc3)CC2C1=O` (stereo not shown) [CHEMBL4292944]: the IC50 was 13.6 nM.

Consider `CC(C)(C)c1cc2ccccc2n1Cc1ccc(C(=O)NO)cc1` [CHEMBL4468860], for which the IC50 was 2000 nM.

Another assay has as its system PC-3 prostate cancer cells. Put plainly: Cell viability assay (MTT) on PC-3 cells. The format is cell-based, human. The conditions noted are these: Homo sapiens, PC-3, 72 h, 72 h treatment; MTT; mean of three independent experiments ± SEM; read-out: PC-3 GI50. The protocol:
(§1) The human prostate cancer cell line PC-3 (ATCC Cat# CRL-1435) was grown in Ham’s F12 (Biowest, Nuaillé, France) medium, while the human prostate cancer cell line LNCaP (ATCC Cat# CRL-1740) was grown in RPMI 1640 (Biowest, Nuaillé, France) medium. Both media were supplemented with 10% Fetal Bovine Serum (FBS, Gibco, Fisher Scientific Italia, Segrate, Italy), 2 mM glutamine, 100 U/mL penicillin, and 100 μg/mL streptomycin. PC-3 and LNCaP cells were maintained at 37 °C in a humidified 5% CO2 atmosphere.
(§2) PC-3 and LNCaP cells were seeded at a density of 4000 and 6000 cells/well into a 96-well plate, respectively, together with a calibration curve of known cell numbers. The following day, the cells were treated with the indicated test compounds at different concentrations starting at 75μM with 2-fold serial dilutions. Cell viability was evaluated after 72h by colorimetric MTT (PC-3) or PrestoBlue™ (LNCaP) cell viability reagents. A total of 0.5 mg/mL of thiazolyl blue tetrazolium bromide (MTT) (Sigma-Aldrich, St. Louis, MO, USA) in Ham’s F12 medium was added to the wells, and the plate was incubated at 37 °C for 2 h. Medium containing unconverted MTT was removed, and 100 μL of MTT solvent (4 mM HCl, 0.1% NP40, in isopropyl alcohol) was added to the wells in order to solubilize MTT crystals. After 15 min of incubation at room temperature, the absorbance values at 570 nm were obtained with a Multiskan FC Microplate Photometer (Thermo Fisher Scientific, Waltham, MA, USA). PrestoBlue reagent (#A13261, Thermo Fisher Scientific, Waltham, MA, USA) was added to the medium (1:10 v/v) and incubated for 1 h at 37 °C. Cell viability was calculated by quantifying PrestoBlue reduction by measuring the absorbance at 570 and 620 nm, according to the manufacturer’s protocol. The viability of untreated cells was arbitrarily set at 100%, and the concentration at which cellular growth is inhibited by 50% (GI50) was determined. Three independent experiments were performed.
Turning to `COC1=C2C[C@@H](C)C[C@H](OC)[C@H](O)[C@@H](C)/C=C(\C)[C@H](OC(N)=O)[C@@H](OC)/C=C\C=C(/C)C(=O)NC(=CC1=O)C2=O` [Geldanamycin], the GI50 was found to be 30 ± 20 nM.

Turning to `CN1CCc2c(c3ccccc3n2Cc2ccc(C(=O)NO)cc2)C1` [Tubastatin-A], the GI50 turned out to be 11100 ± 1600 nM.

Still in this assay, the particulars now being: Homo sapiens, PC-3, 72 h, read-out: PC-3 GI50.
For the compound `O=C(CCCCCCC(=O)Nc1ccccc1)NO` [SAHA, Vorinostat], the GI50 turned out to be 1900 ± 200 nM.

The next assay concerns LNCaP prostate cancer cells. As to the kind of experiment: Cell viability assay (PrestoBlue) on LNCaP cells. The format is cell-based, human. The conditions noted are these: Homo sapiens, LNCaP, 72 h, 72 h treatment; PrestoBlue; mean of three independent experiments ± SEM; read-out: LNCaP GI50. As to the method:
as §1, §2
In the case of `COC1=C2C[C@@H](C)C[C@H](OC)[C@H](O)[C@@H](C)/C=C(\C)[C@H](OC(N)=O)[C@@H](OC)/C=C\C=C(/C)C(=O)NC(=CC1=O)C2=O` [Geldanamycin], the GI50 was determined as 50 ± 20 nM.

As to `CN1CCc2c(c3ccccc3n2Cc2ccc(C(=O)NO)cc2)C1` [Tubastatin-A], the concentration for 50% growth inhibition (GI50) was determined as 5900 ± 1500 nM.

The same assay, now with this note: Homo sapiens, LNCaP, 72 h, read-out: LNCaP GI50.
Turning to `O=C(CCCCCCC(=O)Nc1ccccc1)NO` [SAHA, Vorinostat], the GI50 worked out at 1300 ± 300 nM.

A further assay concerns acetylated tubulin (Ac-Tub) in LNCaP cells. Put plainly: Western blot of acetylated α-Tubulin in LNCaP cells. The assay is classed as cell-based, human. As to conditions: 24 h at GI50 concentration, normalized with Tubulin. The protocol:
To assess whether the observed antiproliferative activity of the selected compounds was a consequence of HDAC6-targeting, we examined the effect of the cell treatments on the expression levels of acetylated tubulin (Ac-Tub), a well-known HDAC6 target. LNCaP and PC-3 cells were treated with the tested compounds at their GI50 concentrations, and SDS-PAGE and western blot were performed. In addition, the acetylation levels of histone H3, which are mainly regulated by HDAC1, were also evaluated in order to exclude potential class I-HDAC off-target activities. We used Tubastatin-A and Geldanamycin as reference controls for cellular effects resulting from HDAC6- and Hsp90-inhibition, respectively. The results in Figure 2 show a significant increase in α-Tubulin acetylation in LNCaP cells after treatments with compounds 8, 11 and 18. Indeed, these compounds triggered a 2.9-, 5.1-, and 2.5-fold increase, respectively, compared to the control (DMSO). […].
Figure 2 Western blot analysis and relative quantification of the expression levels of acetylated-Tubulin (Ac-TUB), acetylated H3 (Ac-H3), and HSP70 in LNCaP (A,B) and PC-3 (C,D) cells treated for 24 h at GI50 concentration. Tubastatin-A was used as HDAC6-specific positive control, Geldanamycin (GELDA) as HSP90-specific positive control, and SAHA as pan-HDAC inhibitor. Protein expression was normalized with Tubulin levels (Ac-TUB and HSP70) or total H3 (Ac-H3). Quantification is reported as fold change in treated cells versus DMSO control (CTR), arbitrarily set at 1 (one sample t-test p-values: * p < 0.05, ** p < 0.01, *** p < 0.001, **** p < 0.0001; n = 3).
Cell treatment. PC-3 and LNCaP cells were grown in 12-well tissue-culture plates and treated with test compounds at the evaluated GI50 concentration for each candidate inhibitor for 24 h. DMSO was used as a negative control, while Tubastatin-A and Geldanamycin were used as positive controls for HDAC6 and Hsp90 inhibition, respectively. Vorinostat (SAHA) was used as a pan-HDACi control. […] Protein quantitation was performed with Pierce Detergent Compatible Bradford Assay (#23246, Thermo Fisher Scientific, MA, USA), and equivalent amounts of cellular extracts were resolved by SDS-PAGE, transferred to PVDF or Nitrocellulose membrane with Trans-Blot Turbo Transfer System (Bio-Rad, Hercules, CA, USA), and immunoblotted with the following primary antibodies, diluted 1:1000 in 1× TBS with 1 mg/mL BSA: Anti-Histone H3 (#PA5-16183, Invitrogen, Thermo Fisher Scientific, MA, USA), Anti-acetylated histone H3 (#sc-518011, Santa Cruz Biotechnology, Inc., Dallas, TX, USA), Anti-Tubulin (#E-AB-20073, Elabscience, Houston, TX, USA), Anti-acetylated α-tubulin (#sc-23950, Santa Cruz), and Anti-HSP70 (#4872S, Cell Signaling Technology, Inc., Danvers, MA, USA). […]
(In western blotting, separated proteins are transferred to a membrane and probed.)
For `CN1CCc2c(c3ccccc3n2Cc2ccc(C(=O)NO)cc2)C1` [Tubastatin-A], the “α-Tubulin acetylation, fold increase compared to the control (DMSO)” value was 3.3 fold.
